# Measured values reported in patent US12440476B2, “Agents that target telomerase reverse transcriptase (TERT) for treating cancer and sensitizing cancer cells to genotoxic therapy” (Northwestern University, priority 2022, dated 2025).
# Columns and labels:
# MCF7-FUCCI cells = experiment: Time-lapse live-cell analysis of cell cycle; assay type: cell-based, human; settings: 0.5 μM for 1 h, then 6 Gy, 6 days
# Method: MCF7-FUCCI cells were seeded at 3×10^4 per well in 6-well plates, allowed to attach overnight, then treated with 0.5 μM NU-2 control, NU-1 or chrolactomycin for 1 h, followed by 6 Gy. Then, live-cell imaging was conducted using the IncuCyteS3. Phase contrast along with green and red channels were acquired at 20× magnification with scanning every 2 h for 6 days. 16 non-overlapping fields were captured for each well. Representative consecutive images were used to create the movies using Fiji (Schindelin et al., 2012).
# CT26 cells = experiment: Clonogenic survival after irradiation (radiosensitivity); assay type: cell-based, mouse
# Method: To assess radiosensitivity, MCF7, Saos-2, or CT26 cells were seeded in 6-well plates at 100 cells per well in triplicate, allowed to attach overnight and treated with DMSO or TERT inhibitors at subtoxic concentrations for 1 h prior to IR. MCF7 cells were treated with 0.5 μM NU-1, 10 μM BIBR 1532, or 1 μM MST-312, Saos-2 cells with 1 μM NU-1 or 20 μM BIBR 1532 and CT26 cells with 1 μM NU-1, 20 μM BIBR 1532 or 2 μM MST-312. Doses of 0, 1, 2, 3, 4, or 5 Gy were applied using a GammaCell ^60Co γ-ray source (Nordion) at a dose rate of 7.09 cGy/sec. After that MCF7 and Saos-2 cells were cultured for 3 weeks and CT26 for 2 weeks, then fixed and stained with crystal violet. Colonies of at least 50 cells were counted. Data from three independent biological replicates were acquired. The surviving fraction (SF) was calculated using the following formula: […]
# CT26 subcutaneous tumors = experiment: Subcutaneous CT26 tumor growth, NU-1 with or without 10 Gy; assay type: in vivo, BALB/c mice
# Method: (§1) For tumor inoculation, 7-9 week BALB/c mice or NSG mice were subcutaneously injected in the flank with 0.5×10^6 CT26 cells in 100 μL PBS. On Day 9 (tumor average volume ˜30 mm^3), the tumor bearing BALB/c mice were randomly divided into 4 groups of 8, while the NSG mice were randomly divided into 2 groups of 5-6. For NU-1 treatment, 10 mg/kg of NU-1 in 100 μL PBS was injected intraperitoneally once on each of the 2 days before, the day of and 2 days after irradiation. Mouse weight was measured before treatment. Tumor irradiation was conducted on Day 11 using a RadSource RS-2000 X-Ray generator operating at 160 kV and 25 mA at 10 Gy, calibrated by NIST traceable dosimetry. From Day 7 after tumor inoculation, tumors were measured by calipers every 2-3 days and volume calculated using the formula: Tumor volume (mm^3)=length (mm)×width (mm)×width (mm)[…]. On Day 18 after tumor inoculation, tumors from 3 mice under each treatment condition were collected for histology analysis. The rest of the mice were continuously maintained and recorded until at least Day 28 or reaching the humane endpoint for tumor volume. No animals that formed tumors after injection with CT26 cells were excluded from any studies reported here.
# CT26 tumors were collected 5 days after treatment (Day 18 after tumor inoculation) and fixed in 10% neutral formalin for 24 h. Formaldehyde-fixed paraffin-embedded (FFPE) tumors were sectioned and stained with hematoxylin and eosin (H&E) by the Human Tissue Resource Center at The University of Chicago. To perform immunofluorescence analysis, tumor sections were deparaffinized in xylene for 10 min, then rehydrated with 95%, 70%, 50%, and 0% ethanol for 5 min each. After that, the tumor section was immersed in 10 mM sodium citrate buffer (pH 6.0) for 30 min at 90° C. for antigen retrieval. Then the tumor sections were blocked in 5% BSA-TBS, stained with anti-Ki67 (1:1000), anti-γH2AX (1:500), anti-CD45 (1:500), anti-CD11c (1:250), anti-CD8 (1:250), anti-granzyme B (1:250) and anti-PD-L1 primary antibodies diluted in 5% BSA-TBS at 4° C. overnight. Followed by washing with TBST, tumor sections were stained with fluorophore-conjugated secondary antibodies (1:2000, Vector Labs) and DAPI (1 μg/mL) diluted in 5% BSA-TBS for 90 min at room temperature. The H&E stained tissue sections were scanned using an Olympus VS200 SlideView Whole Slide Scanner. The fluorescent tumor sections were imaged using a 3i Marianas Spinning Disk Confocal with a 20× objective and pseudo-colored using Fiji. Detailed primary antibody information is provided in Key resources table.
# MCF7 cells = settings: cited from earlier work
# Saos-2 cells = experiment: DNA damage foci staining (53BP1, γH2AX); assay type: cell-based, human; settings: 1 μM NU-1, 0 or 6 Gy
# Method: MCF7 or Saos-2 cells were seeded on sterile cover glass at 2.5×10^4 per well in 24-well plates. MCF7 cells were treated with DMSO, NU-2 (0.5 μM), NU-1 (0.5 μM), chrolactomycin (0.5 μM), BIBR 1532 (10 μM), or MST-312 (1 μM) for 1 h, and Saos-2 cells were treated with DMSO or NU-1 (1 μM) for 1 h, followed by 0 or 6 Gy irradiation. 24 h after irradiation, cells were fixed with 4% PFA for 10 min and permeabilized with 0.2% Triton-X 100 diluted in PBS for 10 min at room temperature. After blocking with 5% BSA-PBS for 1 h, primary antibodies for γH2AX (Millipore, 05-636, 1:1000) or 53BP1 (Novus, NB100-304, 1:1000) diluted in 5% BSA-PBS were then incubated on cell slides overnight at 4° C. Following PBS washes, DAPI (1 μg/mL) and fluorescent secondary antibodies (Jackson ImmunoResearch, 1:2000, ) diluted in 5% BSA-PBS were applied for 1 h at room temperature. Cell slides were mounted with ProLong Gold Antifade Mountant (Thermo Fisher Scientific) after PBS washes. Foci images were captured on a Zeiss Axiovert 40CFL with a 40× Plan-NeoFluar objective and pseudo-colored using Fiji. Three replicates were performed.
# CT26 tumors = experiment: Subcutaneous CT26 tumor growth, IR with or without NU-1, immunodeficient host; assay type: in vivo; settings: NSG mice
# Method: as §1
# CT26 tumors were collected 5 days after treatment (Day 18 after tumor inoculation) and fixed in 10% neutral formalin for 24 h. […]
# [1] = IR + NU-1, tumors removed on Day 18
smiles,measurement,setting,value
C=C1C(=O)[C@](C)(C(=O)OC)[C@H](CCc2cn(Cc3ccc(F)cc3F)nn2)O[C@@H]1C [NU-1],Surviving cells arrested with G1 marker expression and senescent morphology,MCF7-FUCCI cells,~80%
same,Sensitization of CT26 cells to radiation,"CT26 cells; CT26, non-toxic doses",sensitized CT26 cells to radiation
same,Mean SF2 (surviving fraction at 2 Gy),"CT26 cells; CT26 cells, NU-1 1 μM, BIBR 1532 20 μM, MST-312 2 μM for 1 h prior to IR, 2 Gy",0.322
same,"Effect on tumor growth, NU-1 alone","CT26 subcutaneous tumors; 10 mg/kg IP daily Days 9 to 13, no IR",no appreciable effect
same,Tumors eliminated within two weeks after treatment,"CT26 subcutaneous tumors; IR (10 Gy, Day 11) + NU-1 10 mg/kg IP Days 9 to 13",7 of 8
same,Tumor immune infiltration,"CT26 subcutaneous tumors; IR + NU-1, Day 18 tumor sections",markedly higher tumor immune infiltration
same,Tumor recurrence after clearance,"CT26 subcutaneous tumors; IR + NU-1, followed 54 days",did not recur
same,Ki-67 expression in tumors vs IR alone,CT26 subcutaneous tumors; [1],lower expression of proliferation marker Ki-67
same,Persistent γH2AX in tumors vs IR alone,CT26 subcutaneous tumors; [1],upregulation of persistent γH2AX
same,PD-L1 in tumors,CT26 subcutaneous tumors; IR + NU-1 vs IR alone,less increase in PD-L1
same,LD50,MCF7 cells,21 µM
same,Effect on 53BP1 or γH2AX foci,Saos-2 cells,appeared not to impact 53BP1 or γH2AX foci
same,Tumor elimination,CT26 tumors; IR + NU-1,no longer sufficient to eliminate tumors
same,Tumor growth delay,CT26 tumors; IR + NU-1 vs IR alone,enhanced growth delay
